Key:
132 = assay: Cytotoxicity assay (Alamar blue); assay type: cell-based; details: Homo sapiens, Patient sample of Chronic Lymphocytic Leukemia
Experimental: (§1) FIGS. 16A-16B. Granaticin A and Granaticin B inhibit multiple tumor types: The indicated cell lines and primary patient samples were tested against the compounds listed in standard cytotoxicity assays (12 point dose response using Alamar blue reduction as an indicator of cell viability). Assays were done in triplicate and IC50 determinations were run in 12-point serial dilutions from […] to 5 nM. […] These include ras and EGFR gatekeeper mutation containing cell lines in addition to p53 mutant cell lines and other known chemotherapy resistant cell lines. Specifically, this included multi-drug resistance phenotype (MDR-overexpressing) cell lines from multiple hematologic and solid tumor cell lines. Table 1 highlights a series of primary patient leukemia samples-both acute and chronic and treatment naïve and refractory tested against granaticins A and B and Derivatives 1 and 2 (see Examples).

ALL3 = assay: Cytotoxicity assay (Alamar blue); assay type: cell-based; details: Human Acute Lymphoblastic leukemia, Philadelphia chromosome positive
Experimental: as §1

CWR22 = assay: Cytotoxicity assay (Alamar blue); assay type: cell-based; details: human prostate carcinoma
Experimental: as §1

H1734 = assay: Cytotoxicity assay (Alamar blue); assay type: cell-based; details: NCI-H1734, Human lung adenocarcinoma, G13C KRAS mutation
Experimental: as §1

H2122 = assay: Cytotoxicity assay (Alamar blue); assay type: cell-based; details: NCI-H2122, human lung adenocarcinoma, G12C KRAS mutation, Q16L and C176F P53 mutations
Experimental: as §1

H2444 = assay: Cytotoxicity assay (Alamar blue); assay type: cell-based; details: NCI-H2444, human lung adenocarcinoma, G12V KRAS mutation
Experimental: as §1

H3255 = assay: Cytotoxicity assay (Alamar blue); assay type: cell-based; details: NCI-H3255, Human lung adenocarcinoma, L858R EGFR mutation, wild-type KRAS, wild-type P53
Experimental: as §1

HCC4011 = assay: Cytotoxicity assay (Alamar blue); assay type: cell-based; details: Human lung adenocarcinoma, L858R EGFR mutation, wild-type KRAS
Experimental: as §1

HELA N10 = assay: Cytotoxicity assay (Alamar blue); assay type: cell-based; details: human cervical adenocarcinoma (positive for human papillomavirus infection)
Experimental: as §1

HL60 MX2 = assay: Cytotoxicity assay (Alamar blue); assay type: cell-based; details: Homo sapiens, MDR variant of HL60 selected with mitoxantrone-clone 2
Experimental: as §1

HL60 RV = assay: Cytotoxicity assay (Alamar blue); assay type: cell-based; details: Homo sapiens, HL-60, MDR variant of HL60 selected with vincristine
Experimental: as §1

HL60 = assay: Cytotoxicity assay (Alamar blue); assay type: cell-based; details: HL-60, Human Acute Promyelocytic leukemia
Experimental: as §1

JABR = assay: Cytotoxicity assay (Alamar blue); assay type: cell-based; details: Homo sapiens, Patient sample of relpased/refractory AML with normal cytogenetics and Flt-3 ITD
Experimental: as §1

JAMC = assay: Cytotoxicity assay (Alamar blue); assay type: cell-based; details: Homo sapiens, Patient sample of AML with inversion of chromosome 16
Experimental: as §1

JAQU = assay: Cytotoxicity assay (Alamar blue); assay type: cell-based; details: Homo sapiens, Patient sample of relapsed/refractory pre-B cell acute lymphoblastic leukemia
Experimental: as §1

JNDSRCT1 = assay: Cytotoxicity assay (Alamar blue); assay type: cell-based; details: Human desmoplastic small round cell tumor cell line
Experimental: as §1

JOHO = assay: Cytotoxicity assay (Alamar blue); assay type: cell-based; details: Homo sapiens, Patient sample of primary refractory AML with inv3 and monosomy 7 (refractory to allogeneic BMT)
Experimental: as §1

KASUMI4 = assay: Cytotoxicity assay (Alamar blue); assay type: cell-based; details: Kasumi-4, Human CML transformed to acute myeloid leukemia, overexpression of EVI1
Experimental: as §1

MAWI B = assay: Cytotoxicity assay (Alamar blue); assay type: cell-based; details: Homo sapiens, Patient sample of secondary chronic myelogenous leukemia
Experimental: as §1

MAWI = assay: Cytotoxicity assay (Alamar blue); assay type: cell-based; details: Homo sapiens, Patient sample of relpased/refractory AML with normal cytogenetics
Experimental: as §1

MEG01 = assay: Cytotoxicity assay (Alamar blue); assay type: cell-based; details: MEG-01, Human CML transformed to acute Megakaryoblastic leukemia
Experimental: as §1

MIHA = assay: Cytotoxicity assay (Alamar blue); assay type: cell-based; details: Homo sapiens, Patient sample of relapsed/refractory acute biphenotypic leukemia (refractory to allogeneic bone marrow transplant)
Experimental: as §1

PC9 = assay: Cytotoxicity assay (Alamar blue); assay type: cell-based; details: PC-9, Human lung adenocarcinoma, DelE746-A750 EGFR mutation
Experimental: as §1

SKMEL28 = assay: Cytotoxicity assay (Alamar blue); assay type: cell-based; details: SK-MEL-28, Human melanoma
Experimental: as §1

SOPA = assay: Cytotoxicity assay (Alamar blue); assay type: cell-based; details: Homo sapiens, Patient sample of secondary AML with chromsome 11q23 abnormality
Experimental: as §1

STGL = assay: Cytotoxicity assay (Alamar blue); assay type: cell-based; details: Homo sapiens, Patient sample of refractory AML with multiple chromosomal abnormalities (refractory to allogeneic BMT)
Experimental: as §1

SW1736 = assay: Cytotoxicity assay (Alamar blue); assay type: cell-based; details: SW-1736, Human anaplastic thyroid carcinoma with BRAF V600E mutation
Experimental: as §1

TC71 = assay: Cytotoxicity assay (Alamar blue); assay type: cell-based; details: TC-71, Human Ewing's sarcoma
Experimental: as §1

Y79 = assay: Cytotoxicity assay (Alamar blue); assay type: cell-based; details: Human retinoblastoma
Experimental: as §1

HeLa = assay: FACS and caspase-3 assay in HeLa cells; assay type: cell-based, human; details: for cell cycle profile: 24 hours (granaticin B 1 microM)
Experimental: FIGS. 23A-23C. Granaticin A and B are not cytotoxic to normal diploid cells: FIGS. 23A-23B: Granaticin B exposure is not cytotoxic to normal diploid cells. Either HeLa or RPE (retinal pigment epithelial cells, a normal human diploid cell line) cells were incubated in carrier control (DMSO) or granaticin B (1 microM) for 24 hours and samples were subjected to standard FACS analysis with the x-axis indicating DNA content (FIG. 23A). […] FIG. 23C: Granaticin A exposure is not cytotoxic to normal diploid cells. Either HeLa or RPE (retinal pigment epithelial cells, a normal diploid cell line) cells were incubated in carrier control (DMSO) or granaticin A for 24 hours and samples were subjected to standard FACS analysis with FL2 indicating DNA content.

CC1OC2CC(O)C1(O)c1c(O)c3c(c(O)c12)C(=O)C1=C(C3=O)[C@H](C)O[C@H]2CC(=O)O[C@@H]12 (stereo partly shown) [Granaticin A, granaticin A]
IC50 132: 130 nM
IC50 (ALL3): 140 nM
IC50 (CWR22): 90 nM
IC50 (H1734): 240 nM
IC50 (H2122): 1190 nM
IC50 (H2444): 310 nM
IC50 (H3255): 210 nM
IC50 (HCC4011): 140 nM
IC50 (HELA N10): 1270 nM
IC50 (HL60 MX2): 110 nM
IC50 (HL60 RV): 90 nM
IC50 (HL60): 140 nM
IC50 (JABR): 210 nM
IC50 (JAMC): 60 nM
IC50 (JAQU): 50 nM
IC50 (JNDSRCT1): 70 nM
IC50 (JOHO): 880 nM
IC50 (KASUMI4): 300 nM
IC50 (MAWI B): 420 nM
IC50 (MAWI): 720 nM
IC50 (MEG01): 170 nM
IC50 (MIHA): 300 nM
IC50 (PC9): 300 nM
IC50 (SKMEL28): 540 nM
IC50 (SOPA): 100 nM
IC50 (STGL): 1880 nM
IC50 (SW1736): 160 nM
IC50 (TC71): 150 nM
IC50 (Y79): 60 nM
cell cycle profile (HeLa): apoptotic cell death

CC1OC2CC(O[C@H]3CC[C@H](O)[C@H](C)O3)C1(O)c1c(O)c3c(c(O)c12)C(=O)C1=C(C3=O)[C@H](C)O[C@H]2CC(=O)O[C@@H]12 (stereo partly shown) [Granaticin B, granaticin B]
IC50 132: 10 nM
IC50 (ALL3): 30 nM
IC50 (CWR22): 40 nM
IC50 (H1734): 40 nM
IC50 (H2122): 210 nM
IC50 (H2444): 30 nM
IC50 (H3255): 70 nM
IC50 (HCC4011): 50 nM
IC50 (HELA N10): 970 nM
IC50 (HL60 MX2): 70 nM
IC50 (HL60 RV): 70 nM
IC50 (HL60): 90 nM
IC50 (JABR): 50 nM
IC50 (JAMC): 40 nM
IC50 (JAQU): 10 nM
IC50 (JNDSRCT1): 50 nM
IC50 (JOHO): 170 nM
IC50 (KASUMI4): 180 nM
IC50 (MAWI B): 160 nM
IC50 (MAWI): 180 nM
IC50 (MEG01): 80 nM
IC50 (MIHA): 40 nM
IC50 (PC9): 70 nM
IC50 (SKMEL28): 340 nM
IC50 (SOPA): 90 nM
IC50 (STGL): 620 nM
IC50 (SW1736): 20 nM
IC50 (TC71): 90 nM
IC50 (Y79): 50 nM
caspase-3 activation (HeLa; 1 microM): only activated in HeLa cells
cell cycle profile (HeLa): apoptotic cell death

Reference: patent publication US20210283099A1, “CDC7 KINASE INHIBITORS AND USES THEREOF” (SLOAN-KETTERING INSTITUTE FOR CANCER RESEARCH, priority 2010, published 2021)
